Data taken from publication PMC6273592, “Catalytic Synthesis of a New Series of Alkyl Uronates and Evaluation of Their Physicochemical Properties” (Molecules, 2016).
In brackets after ≈: the same amount, converted by molar mass. Several values for one entry are separate records, joined by “and”; a condition that tells them apart may be missing. Identical values can stand only once. Entries after “also recorded” stand apart in the source; their conditions may differ. Like-named read-outs stand apart in the source and are kept apart here.

What was measured:
[1] = Krafft temperature (Tk) by differential scanning calorimetry; type: physicochemical; details: DSC, aqueous mixture 10% (w/w), heating scan 4 °C to 65 °C, onset of endothermic signal
Experimental: (§1) For each molecule, several samples in 1–2 mL deionized water with various concentrations (between 0.01 mM and 100 mM) were prepared by homogenizing at 500 rpm with a standard magnetic hotplate stirrer MR 3001K (Heidolph Instruments, Schwabach, Germany) for 30 min. The soluble or insoluble character was estimated on the aspect change of corresponding dispersion systems. The concentration limit to obtain an apparently clear solution was noted [C]max. […] This allows the examination of the temperature-driven solubilization behavior and verifies the presence of the Krafft point (Tk), above which the surfactant solubility in water increases abruptly. At Tk, solubility of the surfactant reaches its critical micelle concentration (CMC). In other words, Tk represents the critical temperature at which the micellization process occurs with the dissolution of hydrated surfactant crystals. Thus, Tk can be precisely determined by differential scanning calorimetry (DSC), which has already been proposed by some authors. All of the measurements were performed with a commercial µDSC7 evo calorimeter (SETARAM Instrumentation, Caluire, France). For each molecule, a sample with a concentrated aqueous mixture of 10% (w/w) molecule (C >> CMC) was prepared at 50 °C under magnetic agitation for 30 min to obtain a homogeneous and clear dispersion. These dispersions were then put into a refrigerator at 4 °C for a period over a week, permitting potential phase transitions, including the formation of equilibrated hydrated crystals. Samples of about 300 mg were introduced in the calorimeter cell and equilibrated at 4 °C for 1 h. A heating scan from 4 °C to 65 °C at a rate of 0.5 °C/min was then performed. Tk were identified as the onset of the endothermic signal detected by DSC during the dissolution of hydrated crystals. Tk were calculated as an average of at least two measurements.

[2] = Equilibrium surface tension at the air-aqueous solution interface (Wilhelmy plate); type: physicochemical; details: water; for Amin (minimal area per molecule at air-aqueous solution interface): calculated from Gibbs equation
Experimental: The surface activity of the synthesized molecules was studied mainly in terms of their adsorption behavior on the air-aqueous solution interface. The equilibrium surface tensions γ were measured by means of a Wilhelmy plate using a K100 Processor Tensiometer (KRUSS, Hamburg, Germany). The equilibrium surface tension γ was plotted as a function of the log concentration for all molecules, from which we can derive various parameters, like critical micellar concentration (CMC) extrapolated from the break in the surface tension curve and surface tension at the CMC (γcmc). The surface excess (Γmax) and minimal area per molecule at air-aqueous solution interface (Amin) can be calculated from Gibbs equation for non-ionic surfactants: (2) Гmax=−1/2.303RT(dγ/dlogc) and (3) Amin=10^20/NAГmax where R is the ideal gas constant (8.31 J·mol^−1K^−1)’ T is the measuring temperature (K); γ is the surface tension (N·m^−1), c is the concentration (mol·L^−1); Amin is the minimal area per molecule (Å^2); and NA is Avogadro′s number (6.02 × 10^23 mol^−1).
For each molecule, a series of solutions of different concentrations were prepared well above its Krafft Point, either at room temperature of about 25 °C or at 50 °C, under agitation in a water bath for 30 min. Measurements were carried out for each concentration, either at 25 °C for molecules with a Tk below room temperature, or at T > Tk for those with higher Tk values than 25 °C. The standard deviation for temperature is 1 °C.

[3] = Aqueous solubility: concentration limit of apparently clear solution ([C]max) by visual observation; type: physicochemical; details: for solubility at 30 min: deionized water
Experimental: as §1

[4] = cited from earlier work
[5] = room temperature of about 25 °C, visual observation

Row | Compound | Tk (Krafft Temperature) [1] | CMC ([2]; 25 °C) [mM] | γcmc (surface tension at the CMC) ([2]; 25 °C) [mN·m^−1] | Amin (minimal area per molecule at air-aqueous solution interface) ([2]; 25 °C) [Å^2/molecule] | solubility at 30 min [3, 5] [µM] | [C]max ([3]; water, 25 °C (Table 2)) [mM] | CMC [4] [mM] | further results
1 | CCCCCCCCOC(=O)C1OC(OC)C(O)C(O)C1O [compound 7, Octyl (methyl α-D-mannopyranosid)uronate] | no signal; also recorded: undetected | 5.5 ± 0.5 | 28.3 ± 0.3 | 42.8 ± 2 | ≥ 5000 | 5.0 to 6.2 |  | 
2 | CCCCCCCCOC(=O)[C@H]1O[C@H](OC)[C@H](O)[C@@H](O)[C@@H]1O [3d, Octyl (methyl α-D-glucopyranosid)uronate] | no signal; also recorded: undetected | 6.0 ± 0.5 | 29.2 ± 0.4 | 41.0 ± 1 | ≥ 20000 | 15 to 20 |  | 
3 | CCCCCCOC(=O)[C@H]1O[C@H](OC)[C@H](O)[C@@H](O)[C@@H]1O [3c, Hexyl (methyl α-D-glucopyranosid)uronate] | undetected | 55 ± 5 | 30.8 ± 0.8 | 39.2 ± 2.9 | ≥ 50000 | 50 to 60 |  | 
4 | CCCCCCCCCCOC(=O)[C@H]1O[C@H](OC)[C@H](O)[C@@H](O)[C@@H]1O [3e, Decyl (methyl α-D-glucopyranosid)uronate] | undetected | 0.65 ± 0.05 | 28.1 ± 0.1 | 42.4 ± 2 | 500 to 750 (≈ 174 to 261 µg/mL) | 0.5 to 0.75 |  | 
5 | polyoxyethylene (23) lauryl ether [Brij 35] |  |  |  |  |  |  | 0.03 to 0.09 | 
6 | CCCCCCCCOC(=O)[C@H]1O[C@@H](OC)[C@H](O)[C@@H](O)[C@H]1O [compound 5, Octyl (methyl β-D-galactopyranosid)uronate] | 31 ± 0.9 °C |  |  |  |  |  |  | CMC ([2]; 40 °C): 6.9 ± 0.4 mM; γcmc (surface tension at the CMC) ([2]; 40 °C): 29.4 ± 0.36 mN·m^−1 and 29.4 ± 0.4 mN·m^−1; Amin (minimal area per molecule at air-aqueous solution interface) ([2]; 40 °C): 42.9 ± 3.9 Å^2/molecule; [C]max ([3]; water, 40 °C (Table 2)): >100 mM; [C]max at T > Tk ([3]; water, above Krafft temperature (31 °C)): > 100 mM; [C]max at ≈25 °C (concentration limit of apparently clear solution) ([3]; water, room temperature of about 25 °C, visual observation): insoluble
7 | polyethylene glycol tert-octylphenyl ether [Triton X-100] |  |  |  |  |  |  | 0.23 to 0.24 | 
8 | polyoxyethylene sorbitan monolaurate [Tween 20] |  |  |  |  |  |  | 0.050 to 0.059 | 
9 | CCCCCCCCCCCCOC(=O)[C@H]1O[C@H](OC)[C@H](O)[C@@H](O)[C@@H]1O [3f, Dodecyl (methyl α-D-glucopyranosid)uronate] | 22 ± 0.2 °C | 0.056 ± 0.004 | 28.3 ± 0.3 | 45.6 ± 5 | ≥ 30 | 0.03 to 0.05 |  | 
